Data set [1] in a line: Metabolic stability in mouse liver microsomes. In kind it is in vitro ADME.
In the next data set the test system is H1299 lung cancer cells. As to the kind of experiment: Cell viability. To be noted: for effect on JL5-induced cell death: H1299, pretreated 1 h, then JL5 3 days. It counts as cell-based, human.
Data set [2] can be described thus: LCMS of stored solid sample. In kind it is physicochemical. To be noted: stored as a solid in a desiccator for 4 months.
The conditions of data set [3]: cited from earlier work.
In the next data set the target is T1, ALK2/ACVR1 (Homo sapiens, UniProt Q04771).
T1 sequence (Q04771 21-509): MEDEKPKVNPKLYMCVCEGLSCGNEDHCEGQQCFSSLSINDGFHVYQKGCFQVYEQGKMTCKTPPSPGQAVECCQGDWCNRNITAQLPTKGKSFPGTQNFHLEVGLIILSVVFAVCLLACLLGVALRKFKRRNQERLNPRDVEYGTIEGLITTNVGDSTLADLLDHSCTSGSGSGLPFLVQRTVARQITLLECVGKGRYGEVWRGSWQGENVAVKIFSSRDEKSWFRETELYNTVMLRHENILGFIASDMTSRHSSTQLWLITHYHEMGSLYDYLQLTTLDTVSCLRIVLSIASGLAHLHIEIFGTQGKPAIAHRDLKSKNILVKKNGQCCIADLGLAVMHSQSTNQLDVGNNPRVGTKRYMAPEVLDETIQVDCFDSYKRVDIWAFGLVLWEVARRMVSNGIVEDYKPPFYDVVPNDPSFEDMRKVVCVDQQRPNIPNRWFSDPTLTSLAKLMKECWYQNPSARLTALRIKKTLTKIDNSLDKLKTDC
The conditions noted are these: read-out: IC50 ALK2/ACVR1; previously reported; cited from earlier work.

Another data set has as its target ALK3/BMPR1A (Homo sapiens, UniProt P36894). The conditions noted are these: read-out: IC50 ALK3/BMPR1A; previously reported; cited from earlier work.
A further data set has as its target ALK6/BMPR1B (Homo sapiens, UniProt O00238). The conditions noted are these: read-out: IC50 ALK6/BMPR1B; previously reported; cited from earlier work.
The target in the next data set is T2, BMPR2 (Homo sapiens, UniProt Q13873).
T2 sequence (Q13873 27-1038): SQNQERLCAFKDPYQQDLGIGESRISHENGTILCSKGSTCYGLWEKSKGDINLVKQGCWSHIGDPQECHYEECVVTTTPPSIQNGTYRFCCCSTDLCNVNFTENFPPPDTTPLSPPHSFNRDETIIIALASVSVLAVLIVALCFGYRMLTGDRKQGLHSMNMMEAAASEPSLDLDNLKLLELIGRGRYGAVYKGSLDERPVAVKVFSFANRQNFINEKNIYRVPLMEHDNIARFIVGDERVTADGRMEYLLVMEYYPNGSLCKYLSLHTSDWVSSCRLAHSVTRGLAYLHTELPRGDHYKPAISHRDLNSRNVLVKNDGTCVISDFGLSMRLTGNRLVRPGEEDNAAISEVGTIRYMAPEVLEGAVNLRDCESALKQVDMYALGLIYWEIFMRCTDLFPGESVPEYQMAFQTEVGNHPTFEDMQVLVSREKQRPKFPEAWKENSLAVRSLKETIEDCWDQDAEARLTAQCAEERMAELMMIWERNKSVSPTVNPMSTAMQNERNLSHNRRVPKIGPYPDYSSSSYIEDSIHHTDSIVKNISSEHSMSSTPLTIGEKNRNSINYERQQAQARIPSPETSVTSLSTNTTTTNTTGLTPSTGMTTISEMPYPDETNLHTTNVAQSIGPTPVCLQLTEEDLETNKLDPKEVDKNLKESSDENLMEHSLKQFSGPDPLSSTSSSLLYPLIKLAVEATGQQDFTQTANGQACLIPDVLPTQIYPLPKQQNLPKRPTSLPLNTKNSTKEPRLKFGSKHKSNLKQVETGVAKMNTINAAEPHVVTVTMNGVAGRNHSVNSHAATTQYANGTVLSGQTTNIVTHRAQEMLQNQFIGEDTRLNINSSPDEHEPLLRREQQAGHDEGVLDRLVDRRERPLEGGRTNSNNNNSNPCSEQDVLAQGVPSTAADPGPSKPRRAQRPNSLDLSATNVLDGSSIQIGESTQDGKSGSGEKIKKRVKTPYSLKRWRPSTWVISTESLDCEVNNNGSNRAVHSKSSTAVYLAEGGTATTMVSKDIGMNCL
The conditions noted are these: read-out: IC50 BMPR2; previously reported; cited from earlier work.

The test system of data set [4] is Id1, TAK1, XIAP in H1299 tumors. The conditions noted are these: similar doses; cited from earlier work.

Where two headings read alike, the source gives them in different places. Peptide text beside a SMILES is read from it. * marks the point of attachment. Cbz = O=C(OCc1ccccc1)*; CH2F = FC*

Sequence of ALK3/BMPR1A (P36894 24-532): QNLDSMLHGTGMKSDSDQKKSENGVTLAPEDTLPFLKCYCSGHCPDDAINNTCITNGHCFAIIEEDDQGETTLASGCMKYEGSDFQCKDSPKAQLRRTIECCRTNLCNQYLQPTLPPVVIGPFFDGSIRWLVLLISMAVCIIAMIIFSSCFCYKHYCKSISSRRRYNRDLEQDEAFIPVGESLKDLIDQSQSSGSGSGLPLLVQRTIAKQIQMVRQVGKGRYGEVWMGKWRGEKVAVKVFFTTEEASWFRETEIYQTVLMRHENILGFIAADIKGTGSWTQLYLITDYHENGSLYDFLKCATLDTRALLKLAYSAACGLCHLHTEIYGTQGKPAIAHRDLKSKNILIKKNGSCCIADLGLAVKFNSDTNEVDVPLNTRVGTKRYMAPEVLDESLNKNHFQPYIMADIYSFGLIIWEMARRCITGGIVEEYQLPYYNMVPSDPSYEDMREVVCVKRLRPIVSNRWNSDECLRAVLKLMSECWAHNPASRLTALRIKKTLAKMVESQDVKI
Sequence of ALK6/BMPR1B (O00238 14-502): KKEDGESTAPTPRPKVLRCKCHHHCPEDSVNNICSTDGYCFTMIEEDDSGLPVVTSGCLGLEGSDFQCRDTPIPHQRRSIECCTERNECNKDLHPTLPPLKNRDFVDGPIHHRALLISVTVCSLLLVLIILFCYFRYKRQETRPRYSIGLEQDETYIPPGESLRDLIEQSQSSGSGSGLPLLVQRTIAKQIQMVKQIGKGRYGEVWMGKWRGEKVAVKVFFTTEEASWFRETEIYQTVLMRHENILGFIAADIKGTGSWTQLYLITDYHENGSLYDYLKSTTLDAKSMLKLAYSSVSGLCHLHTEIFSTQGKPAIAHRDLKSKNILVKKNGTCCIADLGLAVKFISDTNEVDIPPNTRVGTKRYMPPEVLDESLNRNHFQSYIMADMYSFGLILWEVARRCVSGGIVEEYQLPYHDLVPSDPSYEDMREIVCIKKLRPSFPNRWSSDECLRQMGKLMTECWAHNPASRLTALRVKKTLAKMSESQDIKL

`c1ccc2c(-c3cnn4cc(-c5ccc(OCCN6CCOCC6)cc5)cnc34)ccnc2c1` [DMH2] registered a ClearanceINT in data set [1] of 250 mL/min/kg. Further, the “cell death, JL5 compared with DMH2” value in the data set on H1299 lung cancer cells (H1299, 2.5 μM, 3 days) is reported as “same amount of cell death”. In addition, in data set [2], the “chemical stability on storage (LCMS)” value is “revealed a phenolic byproduct due to morpholine side-chain hydrolysis”. Besides, in data set [3] (i.v.), the AUCinf is 487 ng·h/mL, the AUClast was 485 ng·h/mL, the CL is 68 mL/min/kg and the T1/2 is 57 min. The Vss in data set [3] (i.v.) is listed as 0.95 L/kg. Moreover, in [3] (p.o.), the AUCinf was 729 ng·h/mL, the AUClast was 707 ng·h/mL and the C0/Cmax is listed as 684 ng/mL. Moreover, the half-life in data set [3] (stated in discussion) is on record as 60 min. Besides, the IC50 on ALK2/ACVR1 was 23 nM. Also, the IC50 on ALK3/BMPR1A is 92 nM. Also, the IC50 at ALK6/BMPR1B is 43 nM. In addition, the IC50 at BMPR2 was 7950 nM. Further, the “downregulation of Id1, pTAK1, XIAP in tumor xenografts” value in data set [4] is listed as “did not downregulate Id1, pTAK1, or XIAP”.

Turning to `COC(=O)C[C@H](NC(=O)[C@H](C)NC(=O)[C@@H](NC(=O)OCc1ccccc1)C(C)C)C(=O)CF` [Z-VAD-FMK] (Cbz-Val-Ala-Asp(OMe)-CH2F), in the data set on H1299 lung cancer cells, the “effect on JL5-induced cell death” value is on record as “partially inhibited”.

Regarding `CN1C(=O)C(Cc2c[nH]c3ccccc23)NC1=S` (stereo not shown) [necrostatin-1], the “effect on JL5-induced cell death” value with H1299 lung cancer cells was “had no effect”.

The values are drawn from publication PMC10905627 (Oncogene, 2018).
